Measurements reported in PubChem BioAssay AID489023 (Sanford-Burnham Center for Chemical Genomics, 2010).
The source made the active and inactive calls. The rule behind the calls is not given here.

Each compound was assayed on 697B cells, BCR-induced NF-kB luciferase reporter luminescence (assay: B-cell receptor NF-kB reporter inhibition – 697B cells, luciferase luminescence, dose response (AID 489023)).
For Cc1cc(N(C)C)ccc1N=Nc1ccc(N)cc1, the IC50 was 61.1 µM (inactive).
With Cc1ccc(CSc2nnc(SCC(=O)N/N=C/C=C/c3ccccc3[N+](=O)[O-])s2)cc1 the IC50 was > 80 µM (inactive).
Compound CCCCCOc1ccc(NC(=O)C(=O)NCCCn2ccnc2)cc1 has an IC50 of 4.78 µM.
With CC1CCC/C=C/C2CC(O)CC2C(O)/C=C/C(=O)O1 (stereo unspecified) the IC50 was > 80 µM (inactive).
CCc1ccc2[nH]c3nc(N/N=C/c4cccc(O)c4)nnc3c2c1 was tested, and the IC50 was > 80 µM (inactive).
For COC(=O)C(C)Oc1cc(C)cc2oc(=O)c3c(c12)CCC3 (stereo unspecified), the IC50 was 58 µM (inactive).
With CCOc1ccc(-n2c(-c3ccccc3)c[n+]3c2CCCCC3)cc1 the IC50 was > 80 µM (inactive).
For O=C(O)CCSc1ncnc2sc(-c3ccccc3)cc12, the IC50 was 2.29 µM.
CSc1ccc(-c2nc(CSCC(=O)NC3CC3)c(C)o2)cc1 showed an IC50 of 2.44 µM.
COc1ccc(/C=C2/SC(=S)N(CCC(=O)O)C2=O)cc1 showed an IC50 of 2.46 µM.
Compound Cc1c(CC(=O)NCCCC(=O)O)c(=O)oc2cc3c(cc12)CCC(C)(C)O3 has an IC50 of 6.82 µM.
Compound CCc1ccc(/C=C2\SC(=S)N(CCC(=O)NC3=NCCS3)C2=O)cc1 has an IC50 of 12.4 µM.
With N=c1c(C(=O)NC2CCCC2)cc2c(=O)n3ccccc3nc2n1CCN1CCOCC1 the IC50 was > 80 µM (inactive).
For COc1cc(NC(=O)c2ccco2)c(OC)cc1NC(=O)c1cc(OC)c(OC)c(OC)c1, the IC50 was 24.9 µM (inactive).
In the case of Cc1ccc(/C=C2\SC(=S)N(CCCC(=O)Nc3cc(C)on3)C2=O)cc1, the IC50 is reported as 34.3 µM (inactive).
With O=C(C1CCC1)N1CCN(S(=O)(=O)c2ccc([N+](=O)[O-])cc2)CC1 the IC50 was > 80 µM (inactive).
COc1ccc(C(C(=O)NC2CCCCC2)N(C(=O)CCl)c2ccc(Cl)cc2)cc1 (stereo unspecified) was tested, and the IC50 was 0.85 µM.
Cc1ccc(-c2cn(-c3ccccc3)c3[n+]2CCCS3)cc1 was tested, and the IC50 was > 80 µM (inactive).
In the case of CC(=O)c1cn(CCOc2cc(C)ccc2C)c2ccccc12, the IC50 is reported as > 80 µM (inactive).
O=C(Nc1cccc(S(=O)(=O)Nc2ccc(Cl)cc2)c1)c1ccc(Cl)nc1 was tested, and the IC50 was 41.6 µM (inactive).
Work on CC(C)c1ccc(/C=C2\SC(=S)N(CCC(=O)NCCCn3ccnc3)C2=O)cc1 yielded an IC50 of 16.6 µM.
For Cc1cc(-c2cc(C(=O)NCc3ccccc3)on2)nc(S(C)(=O)=O)n1, the IC50 was 3.93 µM.
In the case of COc1ccc(-c2ccc(F)cc2)cc1[C@H]1[C@H]2C=CC[C@@H](C)[C@@H]2C(=O)N1Cc1ccccc1, the IC50 is reported as > 80 µM (inactive).
For COc1ccc(-c2noc(CCCC(=O)O)n2)cc1, the IC50 was 2.14 µM.
For Cc1ccc(-c2nn3c(C)nnc3c3ccccc23)cc1S(=O)(=O)NC(C)(C)CO, the IC50 was 29.6 µM (inactive).
O=C(CCl)N1CCN(S(=O)(=O)c2ccc3c(c2)CCC3)CC1 was tested, and the IC50 was 5.72 µM.
C(=N\Nc1nc(Nc2ccccc2)nc(Nc2ccccc2)n1)/c1cccnc1 was tested, and the IC50 was > 80 µM (inactive).
Cc1ccc(S(=O)(=O)CC2CSc3nc4ccccc4n32)cc1 (stereo unspecified) was tested, and the IC50 was > 80 µM (inactive).
With O=C(CCCN1C(=O)/C(=C/c2ccccc2Cl)SC1=S)NNC(=O)c1ccccc1Cl the IC50 was 4.23 µM.
With CCOC(=O)c1cc2c(=O)n3ccccc3nc2n(CC(C)C)c1=NC(=O)c1c(-c2c(F)cccc2Cl)noc1C the IC50 was > 80 µM (inactive).
Compound CCOc1ccc(-c2nnc(SCC(=O)Nc3cc(C)on3)o2)cc1 has an IC50 of 12 µM.
In the case of CCN(CC)c1ccc2cc(NC(=O)CCC(=O)O)c(=O)oc2c1, the IC50 is reported as 1.23 µM.
COc1cc(NC(=O)c2cc3c(C)nc4ccccc4c3o2)cc(OC)c1OC showed an IC50 of 14.1 µM.
For CCN1CCN(C(=O)CSc2cc(=O)n(CC)c3ccccc23)CC1, the IC50 was > 80 µM (inactive).
In the case of O=C(O)CCSc1nc2ccccc2s1, the IC50 is reported as 10.1 µM.
For COc1ccc(-c2nn(C)c(=O)c3ccccc23)cc1NS(C)(=O)=O, the IC50 was 39.9 µM (inactive).
CCN(CC(=O)Nc1c(F)cccc1F)C(=O)c1cc(S(=O)(=O)N(CC)CC)ccc1N1CCCCC1 gave an IC50 of 4.04 µM.
For CCN(CC(=O)Nc1c(F)cccc1F)C(=O)c1cc(S(=O)(=O)N2CCOCC2)ccc1N1CCCC1, the IC50 was 12.7 µM.
With CCc1ccc(-c2nc(CSCC(=O)NC3CC3)c(C)o2)cc1 the IC50 was 0.41 µM.
In the case of CC(C)(C)c1ccc(-c2nnc(SCC(=O)NC3CC3)o2)cc1, the IC50 is reported as > 80 µM (inactive).
For COc1ccc(OC)c(C2CC(=O)Nc3cc(OC)c(OC)c(OC)c32)c1 (stereo unspecified), the IC50 was > 80 µM (inactive).
Compound COCCCNC(=O)COc1ccc(-c2nccc(-c3ccccn3)n2)cc1 has an IC50 of 19.4 µM.
In the case of CC(C)C(c1nnnn1Cc1ccccc1)N(Cc1ccco1)Cc1cccs1 (stereo unspecified), the IC50 is reported as > 80 µM (inactive).
CC1Cc2ccccc2N1S(=O)(=O)c1cnc(Cl)c(Cl)c1 (stereo unspecified) was tested, and the IC50 was > 80 µM (inactive).
CCCCn1c2c(c(=N)c3ccccc31)CCC2 was tested, and the IC50 was > 80 µM (inactive).
CCOC(=O)Cc1csc(NC(=S)NC(=O)c2ccc(Cl)cc2)n1 was tested, and the IC50 was 30.6 µM (inactive).
For CCOc1ccc(S(=O)(=O)NCc2ccncc2)cc1NC(=O)c1ccccc1, the IC50 was > 80 µM (inactive).
With O=C(CSCCO)Nc1ccc(C23CC4CC(CC(C4)C2)C3)cc1 the IC50 was > 80 µM (inactive).
With COc1ccc(NC(=O)c2cc(-c3ccccn3)nc3ccccc23)cc1S(=O)(=O)N(C)C the IC50 was 7.8 µM.
In the case of COc1cccc(Cn2nnc(C(=O)Nc3cc(Cl)ccc3OC)c2N)c1, the IC50 is reported as > 80 µM (inactive).
With COC(=O)c1[nH]c2ccc(C)cc2c1NC(=O)Nc1ccccc1OC the IC50 was > 80 µM (inactive).
CCn1c(=O)cc(SCC(=O)N2CCC(C)CC2)c2ccccc21 was tested, and the IC50 was > 80 µM (inactive).
In the case of COc1ccc2nc(C)cc(Sc3nc4ccccc4s3)c2c1, the IC50 is reported as 1.81 µM.
CC(C)(C)c1ccc(-c2cc(N)n[nH]2)cc1 was tested, and the IC50 was 15.6 µM.
COC(=O)c1c(NC(=O)c2cccc([N+](=O)[O-])c2)sc(C(N)=O)c1C was tested, and the IC50 was 45.6 µM (inactive).
For CCN1C(=O)c2cccc3c(S(=O)(=O)Nc4ccccn4)ccc1c23, the IC50 was 25.2 µM (inactive).
Compound O=C(CCCN1C(=O)S/C(=C\c2ccccc2)C1=O)NNC(=O)c1ccccc1O has an IC50 of 1.64 µM.
In the case of O=C1NC[C@H](c2ccccc2)OC(=O)[C@@H](Cc2ccc(F)cc2)C/C=C\C[C@H]1CC(=O)N(CCO)Cc1ccccc1, the IC50 is reported as 9.87 µM.
C=CCOc1ccccc1CN(C(=O)CCl)c1ccc2c(c1)OCO2 gave an IC50 of 0.72 µM.
O=C(CCCN1C(=O)/C(=C/c2ccccc2Cl)SC1=S)NNC(=O)c1ccccc1 gave an IC50 of 12.5 µM.
For CCN(C(=O)CN1C(=O)NC(c2ccccc2)(c2ccc(C)c(C)c2)C1=O)C1CCCCC1 (stereo unspecified), the IC50 was 48.4 µM (inactive).
Cc1cc(NC(=O)CCCN2C(=O)/C(=C/c3ccccc3Cl)SC2=S)no1 gave an IC50 of 8.86 µM.
In the case of Cc1cccn2c(=O)c3cc(C(=O)NC4CCCCC4)c(=N)n(CCN4CCOCC4)c3nc12, the IC50 is reported as > 80 µM (inactive).
In the case of CCC(CC)C(=O)Nc1ccc(Sc2ccc([N+](=O)[O-])cc2)cc1, the IC50 is reported as 32.2 µM (inactive).
Compound Nc1ccc(-c2cc3ccccc3oc2=O)cc1 has an IC50 of 0.39 µM.
With Cc1cc(C)cc(N2C(=O)NC(=O)/C(=C\c3cccn3-c3ccccc3)C2=O)c1 the IC50 was 36.4 µM (inactive).
CC(=C\c1ccccc1)/C=C1/SC(=O)N(CCCC(=O)Nc2ccc(C(=O)O)cc2)C1=O was tested, and the IC50 was 0.64 µM.
For COC(=O)[C@@H]1Cc2c([nH]c3ccccc23)C(C)(C)N1C(=O)CCl, the IC50 was 1.12 µM.
Cc1c(CCO)c(=O)oc2n[nH]c(-c3ccccc3)c12 was tested, and the IC50 was 13.8 µM.
With O=C(O)COc1ccc(-c2nccc(-c3ccccn3)n2)cc1 the IC50 was 21.7 µM (inactive).
For COc1cc(OC)c(/C=N/NC(N)=S)cc1Br, the IC50 was 34.2 µM (inactive).
With c1ccc(CCNc2ncnc3ccccc23)cc1 the IC50 was 60.1 µM (inactive).
With COc1ccc(/C=C2\SC(=S)N(CCCC(=O)NNC(=O)c3ccccc3O)C2=O)cc1 the IC50 was 0.68 µM.
CCC(=O)N1c2ccccc2[C@@H](N(C(C)=O)c2ccccc2)C[C@H]1C was tested, and the IC50 was 58.2 µM (inactive).
CC(C)(C)c1ccc(-c2noc(CCC(N)=O)n2)cc1 showed an IC50 of less than 0.16 µM.
Cc1ccc(S(=O)(=O)N2CCCCC2CCNC(=O)C(=O)NCc2ccncc2)cc1 (stereo unspecified) was tested, and the IC50 was 11 µM.
COc1cc(-c2nc(C(=O)NCC3CCCO3)cc3c2[nH]c2ccccc23)cc(OC)c1OC (stereo unspecified) showed an IC50 of 12.2 µM.
N=c1ccn2c(n1)OC1C(O)C(CO)OC12 (stereo unspecified) was tested, and the IC50 was less than 0.16 µM.
For Cn1c(=O)cc(SCC(=O)N2CCCC2)c2cc(Cl)ccc21, the IC50 was > 80 µM (inactive).
With COc1ccc(/C=C/c2ccccc2)cc1[C@H]1[C@H]2C=CC[C@@H](C)[C@@H]2C(=O)N1Cc1ccccc1 the IC50 was > 80 µM (inactive).
For COc1ccc(N(CC(=O)N2CCN(c3ccc(Cl)cc3)CC2)S(=O)(=O)c2c(C)n[nH]c2C)cc1, the IC50 was > 80 µM (inactive).
With COc1cccc(N2CCN(c3ncnc4c3[nH]c3ccc(F)cc34)CC2C)c1 (stereo unspecified) the IC50 was 0.79 µM.
With Cc1ccc2nc(NC(=O)CSCC(=O)OCC(=O)c3ccc(Br)cc3)sc2c1 the IC50 was 3.6 µM.
COc1ccc(-c2nsc(SCC(=O)Nc3cc(C)on3)n2)cc1 was tested, and the IC50 was 46.3 µM (inactive).
In the case of CC1(C)CC2CC(C)(CN2S(=O)(=O)c2ccc(C(=O)Nc3ccc(S(=O)(=O)N4CCOCC4)cc3)cc2)C1 (stereo unspecified), the IC50 is reported as > 80 µM (inactive).
For CC(C)N1C(=O)S/C(=C/c2ccc3c(c2)n(C)c(=O)n3C)C1=O, the IC50 was > 80 µM (inactive).
In the case of Cn1c(=O)c2c(SCC(=O)Nc3ccccc3F)nc(-c3ccccc3F)nc2n(C)c1=O, the IC50 is reported as 21.8 µM (inactive).
For Cc1cc(C)c(S(=O)(=O)NCc2ccncc2)c(C)c1, the IC50 was > 80 µM (inactive).
CC1=CC(C)(C)Nc2ccc(OC(=O)C(Cc3ccccc3)N3C(=O)c4ccccc4C3=O)cc21 (stereo unspecified) was tested, and the IC50 was > 80 µM (inactive).
Compound CC(C)Cn1c([N+](=O)[O-])nc2c1c(=O)[nH]c(=O)n2C has an IC50 of 5.67 µM.
With N#CC1=C(N)Oc2cc(Nc3ccccc3)ccc2C1c1ccncc1 (stereo unspecified) the IC50 was 8.6 µM.
CC(C)[C@H](N)c1nnc(SCC(=O)c2ccc(Cl)cc2)o1 was tested, and the IC50 was > 80 µM (inactive).
With NNC(=O)COc1ccc(-c2nccc(-c3ccc(F)cc3)n2)cc1 the IC50 was 4.92 µM.
Compound CCOC(=O)Cc1ccc(NC(=O)c2ccc(C(C)(C)C)cc2)cc1 has an IC50 of less than 0.16 µM.
CCn1c(CN2CCN(c3ccc(Cl)cc3)CC2)nc2ccccc21 was tested, and the IC50 was > 80 µM (inactive).
Cc1ccccc1-n1c(SCc2c(C)noc2C)nnc1-c1c[nH]c2ccccc12 was tested, and the IC50 was 76.1 µM (inactive).
COc1ccc(-c2noc(N3CCC(C(=O)Nc4ccc(OC)c(OC)c4)CC3)n2)cc1 was tested, and the IC50 was > 80 µM (inactive).
For O=c1c(C=NCCCO)c(-c2ccccc2)[nH]n1-c1nc2ccccc2s1, the IC50 was 9.07 µM.
For O=C(CN1C(=O)c2ccccc2S1(=O)=O)c1ccc(OC(F)F)cc1, the IC50 was 1.83 µM.
Compound COc1ccc(NC(=O)CN(C)C(=O)C2(c3ccccc3)CCCC2)cc1 has an IC50 of 3.56 µM.
With O=C(CCCN1C(=O)S/C(=C/C=C/c2ccccc2)C1=O)Nc1ccc(C(=O)O)cc1 the IC50 was > 80 µM (inactive).
